These results are taken from PubChem BioAssay (NCI).

Each structure is given as a SMILES string. Several values for one entry are separate records, joined by “and”; a condition that tells them apart may be missing. Equal entries are not always repeated.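 Briefly, cells in 96-well plates were exposed to five compound concentrations for 48 h, and endpoints were estimated by linear interpolation. GI50: concentration for 50% inhibition of growth. Definition used: TGI = concentration required for complete inhibition of growth.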

Test systems include 786-0 renal; MOLT-4 leukemia; NCI-H226 lung; OVCAR-4 ovarian; OVCAR-5 ovarian; RPMI-8226 leukemia; SF-268 CNS; SF-295 CNS; SK-MEL-5 melanoma; T-47D breast.
Test in all cases: NCI tumour cell line growth inhibition, 48 h

For the molecule `Cn1c(=N)n[n+]([O-])c2ccccc21`, the TGI in the test on 786-0 renal is 16 µM and 24.8 µM; in the test on MOLT-4 leukemia, 5.57 µM and 5.16 µM; in the test on NCI-H226 lung, 24.8 µM and 32.4 µM; in the test with OVCAR-4 ovarian, 7.55 µM and 5.23 µM; in the test with OVCAR-5 ovarian, 3.83 µM and 7.61 µM; with RPMI-8226 leukemia it was 5.19 µM and 7.67 µM. For the same molecule, the TGI in the test on SF-268 CNS was 7.7 µM and 17.6 µM; in the test on SF-295 CNS, 4.49 µM and 15.2 µM; with SK-MEL-5 melanoma it was 3.32 µM and 2.96 µM; in the test on T-47D breast, 21.5 µM and 43.2 µM. For the same molecule, the GI50 in the test with RPMI-8226 leukemia was 1.99 µM and 0.574 µM; in the test with SF-268 CNS, 2.67 µM and 7.11 µM; in the test on T-47D breast, 4.34 µM and 9.12 µM.
As to `O=S(=O)(CCCCl)SCCCCl`, the TGI in the test on 786-0 renal is 33.2 µM; with MOLT-4 leukemia it was 38.5 µM; with NCI-H226 lung, greater than 100 µM; with OVCAR-4 ovarian it was 24.2 µM; in the test with OVCAR-5 ovarian, greater than 94.3 µM; in the test on RPMI-8226 leukemia it was 64.1 µM. Moreover, the TGI with SF-268 CNS is 65 µM; in the test with SF-295 CNS it was greater than 93.4 µM; with SK-MEL-5 melanoma it was greater than 94.1 µM; with T-47D breast, 98.2 µM.
With `CC(C)(C)c1cc(-c2nc3c(F)c(F)c(F)c(F)c3[nH]2)cc(C(C)(C)C)c1O`, the GI50 in the test with 786-0 renal, in the test on MOLT-4 leukemia, in the test on NCI-H226 lung, in the test on OVCAR-4 ovarian, with OVCAR-5 ovarian and in the test on RPMI-8226 leukemia was greater than 100 µM each time. Moreover, the GI50 in the test on SF-268 CNS, in the test on SF-295 CNS, with SK-MEL-5 melanoma and in the test on T-47D breast was greater than 100 µM in each case. Moreover, the TGI with 786-0 renal, with MOLT-4 leukemia, in the test with NCI-H226 lung, in the test on OVCAR-4 ovarian, in the test on OVCAR-5 ovarian and in the test with RPMI-8226 leukemia was greater than 100 µM each time. The TGI with SF-268 CNS, in the test on SF-295 CNS, in the test on SK-MEL-5 melanoma and with T-47D breast was greater than 100 µM in each case.
For the molecule `COc1ccc2c(c1)C(=O)c1c-2c(NCCN(C)C)nc2ccccc12`, the GI50 in the test with 786-0 renal was 2.65 µM; in the test with MOLT-4 leukemia, 0.291 µM; with NCI-H226 lung, 16.2 µM; in the test on OVCAR-4 ovarian, 12.2 µM; with OVCAR-5 ovarian, 4.23 µM; with RPMI-8226 leukemia it was 1.21 µM. The GI50 in the test with SF-268 CNS was 2.97 µM; with SF-295 CNS it was 3.83 µM; with SK-MEL-5 melanoma, 6.47 µM; with T-47D breast it was 14.8 µM. Moreover, the TGI in the test on 786-0 renal came out at 9.1 µM; in the test with MOLT-4 leukemia, 1.15 µM; in the test on NCI-H226 lung, 32.5 µM; with OVCAR-4 ovarian, 36.3 µM; in the test with OVCAR-5 ovarian it was 16 µM; with RPMI-8226 leukemia, 4.53 µM. For the same molecule, the TGI in the test on SF-268 CNS was 15.5 µM; with SF-295 CNS it was 17.5 µM; with SK-MEL-5 melanoma it was 19.7 µM; with T-47D breast it was 34.6 µM.
With `Cc1nc2sc(C(=O)Nc3cccc(Br)c3)c(N)c2cc1C(O)c1ccccc1` (stereo not drawn), the GI50 in the test on 786-0 renal was 1.6 µM; in the test with MOLT-4 leukemia, 0.58 µM; in the test on NCI-H226 lung it was 2 µM; in the test with OVCAR-4 ovarian, 1.31 µM; with OVCAR-5 ovarian, 3.09 µM; in the test on RPMI-8226 leukemia it was 0.511 µM. Besides, the GI50 in the test on SF-268 CNS is 1.81 µM; in the test with SF-295 CNS, 0.765 µM; in the test on SK-MEL-5 melanoma, 0.552 µM; in the test on T-47D breast it was 0.665 µM. Besides, the TGI is 18.4 µM with 786-0 renal; greater than 100 µM in the test with MOLT-4 leukemia; 24.3 µM in the test with NCI-H226 lung; 20.4 µM in the test with OVCAR-4 ovarian; 20.1 µM with OVCAR-5 ovarian; greater than 23.1 µM in the test on RPMI-8226 leukemia. In addition, the TGI with SF-268 CNS was 20.2 µM; in the test with SF-295 CNS it was 12.1 µM; with SK-MEL-5 melanoma it was 1.96 µM; in the test on T-47D breast, 31 µM.
Turning to `CC(=O)[O][Bi]([c]1ccccc1)[c]1ccccc1`, the GI50 is 2.96 µM in the test with 786-0 renal; 2.9 µM in the test with MOLT-4 leukemia; 18.6 µM in the test on NCI-H226 lung; 13.7 µM with OVCAR-4 ovarian; 11.8 µM in the test with OVCAR-5 ovarian; 2.59 µM with RPMI-8226 leukemia. For the same molecule, the GI50 was 14.4 µM in the test on SF-268 CNS, 17.5 µM with SF-295 CNS, 12.8 µM in the test with SK-MEL-5 melanoma and 5.61 µM in the test on T-47D breast. Moreover, the TGI was 9.6 µM with 786-0 renal; greater than 100 µM in the test on MOLT-4 leukemia; 37.5 µM in the test with NCI-H226 lung; 27 µM with OVCAR-4 ovarian; 26.3 µM with OVCAR-5 ovarian; 5.99 µM in the test on RPMI-8226 leukemia. The TGI is 29.9 µM with SF-268 CNS, 33.4 µM in the test with SF-295 CNS, 25.9 µM in the test with SK-MEL-5 melanoma and greater than 100 µM in the test on T-47D breast.
On to `CN1CCN(CC(=O)N2c3cccc4cccc(c34)N(C(=O)CN3CCN(C)CC3)C2c2cn(-c3ccccc3)nc2-c2cccc([N+](=O)[O-])c2)CC1`, for which the GI50 in the test on 786-0 renal was 1.76 µM; with MOLT-4 leukemia, 2.21 µM; in the test on NCI-H226 lung, 1.83 µM; in the test with OVCAR-4 ovarian it was 2.25 µM; in the test on OVCAR-5 ovarian, 2.46 µM; with RPMI-8226 leukemia, 1.76 µM. Further, the GI50 in the test on SF-268 CNS was 1.95 µM; with SF-295 CNS, 1.9 µM; with SK-MEL-5 melanoma it was 1.7 µM; in the test on T-47D breast, 1.97 µM. For the same molecule, the TGI in the test with 786-0 renal amounted to 3.21 µM; with MOLT-4 leukemia, 5.94 µM; with NCI-H226 lung it was 4.8 µM; in the test on OVCAR-4 ovarian, 5.24 µM; in the test on OVCAR-5 ovarian, 7.53 µM; with RPMI-8226 leukemia it was 4.33 µM. The TGI with SF-268 CNS was 4.95 µM; with SF-295 CNS, 3.73 µM; in the test on SK-MEL-5 melanoma, 3.11 µM; in the test with T-47D breast it was 4.34 µM.
As for `O=C(NCCCCCCNC(=O)OCc1ccc2c(Cl)cc(Cl)c(O)c2n1)OCc1ccc2c(Cl)cc(Cl)c(O)c2n1`, the GI50 is 1.28 µM with 786-0 renal; 0.688 µM in the test on MOLT-4 leukemia; 1.07 µM in the test with NCI-H226 lung; 0.707 µM in the test on OVCAR-4 ovarian; 1.5 µM with OVCAR-5 ovarian; 0.311 µM in the test with RPMI-8226 leukemia. For the same molecule, the GI50 in the test with SF-268 CNS was 1.33 µM; with SF-295 CNS, 2.66 µM; in the test on SK-MEL-5 melanoma, 1.54 µM; with T-47D breast, 1.75 µM. The TGI is 2.67 µM in the test with 786-0 renal; 5.55 µM in the test on MOLT-4 leukemia; 2.54 µM in the test on NCI-H226 lung; 2.04 µM with OVCAR-4 ovarian; 3.01 µM in the test on OVCAR-5 ovarian; 1.68 µM in the test on RPMI-8226 leukemia. Further, the TGI with SF-268 CNS was found to be 2.78 µM; in the test with SF-295 CNS, 6.99 µM; with SK-MEL-5 melanoma, 2.88 µM; with T-47D breast, 5.67 µM.
